What is called Ki is a dissociation constant, usually derived from enzyme kinetics or from competition with a known ligand.

Each structure is given as a SMILES string. A value given as a limit tells only on which side of the number the result lay.

The target in this assay is T1, human GnRH receptor (Homo sapiens, UniProt P30968).
T1 construct: expressed in transfected cells; host or cells: RBL cells, stably transfected (in general)
T1 sequence (P30968 1-328): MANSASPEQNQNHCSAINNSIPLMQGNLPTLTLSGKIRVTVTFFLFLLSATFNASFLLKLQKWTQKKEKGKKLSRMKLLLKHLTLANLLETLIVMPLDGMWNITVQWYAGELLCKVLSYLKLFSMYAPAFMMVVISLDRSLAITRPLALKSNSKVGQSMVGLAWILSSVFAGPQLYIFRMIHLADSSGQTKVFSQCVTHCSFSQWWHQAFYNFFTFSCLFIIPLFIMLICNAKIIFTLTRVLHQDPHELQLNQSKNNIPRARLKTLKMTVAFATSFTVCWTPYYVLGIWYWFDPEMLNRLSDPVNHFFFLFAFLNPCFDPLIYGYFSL
Briefly: Peptide competition radioligand binding displacement assay, human GnRH receptor membranes. The note with it: one or more of the peptide competition human receptor binding assays. In a few lines: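 Membranes for radioligand binding were prepared from RBL cells stably expressing human GnRH receptor, which were lysed by nitrogen cavitation at 900 psi, 4° C. Membranes from HEK293 cells stably transfected with human receptor were held in 10 mM HEPES pH 7.5, 150 mM NaCl, 0.1% BSA. Transiently transfected COS-7 cells were used for other species.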
For the molecule `COc1c(Cl)cccc1N(C)C(=O)c1ccc(Cl)c(-c2ncc(Cl)cc2Cl)c1` [19-7], the Ki is at most 100 nM.

With `COc1cc(Cl)c(-c2cnc(C(F)(F)F)cc2C#N)cc1C(=O)N(C)c1ccccc1OCC(F)(F)F` [39-9], the Ki was at most 100 nM.

Turning to `COc1ccccc1N(C)C(=O)c1cc(-c2cnc(C(F)(F)F)cc2C#N)c(Cl)cc1OCCCn1cccc1` [42-10], the Ki was at most 100 nM.

Turning to `Cc1cccc(OCCCC(=O)O)c1N(C)C(=O)c1ccc(Cl)c(-c2nc3ccccc3cc2C#N)c1` [5-4], the Ki is at most 100 nM.

`COc1c(Cl)cccc1N(C)C(=O)c1ccc(Cl)c(-c2cnc(Cl)cc2C)c1` [2-42] yielded a Ki of at most 100 nM.

As to `Cc1ccccc1N(C)C(=O)c1cc(-c2cnc(C(F)(F)F)cc2C#N)c(Cl)cc1OCCCC(=O)O` [20-1, 4-[5-Chloro-4-(4-cyano-6-trifluoromethyl-pyridin-3-yl)-2-(methyl-o-tolyl-carbamoyl)-phenoxy]-butyric acid], the Ki is at most 100 nM.

Take `CN(C(=O)c1cc(-c2cnc(C(F)(F)F)cc2C#N)c(Cl)cc1OCCCC(=O)O)c1ccccc1` [34-8]: the Ki was at most 100 nM.

The molecule `Cc1cccc(OCCCC(=O)O)c1N(C)C(=O)c1ccc(Cl)c(-c2ncc(C(F)(F)F)cc2Cl)c1` [5-3] yielded a Ki of at most 100 nM.

Molecule `Cc1cccc(C)c1N(C)C(=O)c1cc(-c2nc3ccccc3cc2C#N)c(Cl)cc1OCCCCO` [21-6] showed a Ki of at most 100 nM.

In turn, `Cc1cc(C(F)(F)F)nc(=O)n1-c1cc(C(=O)N(C)c2cc(F)ccc2Cl)ccc1Cl` [30-9] had a Ki of at most 100 nM.

In the case of `COc1ccccc1N(C)C(=O)c1ccc(Cl)c(-c2ccc(C#N)nc2)c1` [2-2, 4-chloro-3-(6-cyano-pyridin-3-yl)-N-(2-methoxy-phenyl)-N-methyl-benzamide], the Ki was at most 100 nM.

`Cc1cc(Cl)cnc1-c1cc(C(=O)N(C)c2ccccc2F)ccc1Cl` [2-62]: the Ki was at most 100 nM.

In the case of `COc1cccc(C)c1N(C)C(=O)c1ccc(Cl)c(-c2cnc(C(F)(F)F)cc2C)c1` [2-33], the Ki was at most 100 nM.

Turning to `Cc1cc(Cl)ncc1-c1cc(C(=O)N(C)c2c(C)cccc2OCCCC(=O)O)ccc1Cl` [4-3], the Ki was at most 100 nM.

The molecule `COc1c(Cl)cccc1N(C)C(=O)c1ccc(Cl)c(-c2cnc(C)cc2Cl)c1` [2-46] gave a Ki of at most 100 nM.

Molecule `Cc1cc(C(F)(F)F)ncc1-c1cc(C(=O)N(C)c2ccccc2OCCCC(=O)O)ccc1Cl` [4-6] returned a Ki of at most 100 nM.

With `COc1cc(Cl)c(-c2cnc(C(F)(F)F)cc2C#N)cc1C(=O)N(C)c1cnccc1OC` [39-20], the Ki was at most 100 nM.

`Cc1cccc(C)c1N(C)C(=O)c1ccc(Cl)c(-c2ncc(Cl)cc2Cl)c1` [19-8]: the Ki was at most 100 nM.

`Cc1cc(C(F)(F)F)nc(=O)n1-c1cc(C(=O)N(C)c2cccc(F)c2)ccc1Cl` [30-17] returned an inhibition constant (Ki) of at most 100 nM.

Turning to `COc1cc(Cl)c(-c2cnc(C(F)(F)F)cc2C#N)cc1C(=O)N(C)c1c(C)cccc1OC` [39-10], the Ki is at most 100 nM.

Regarding `COc1cccc(C)c1N(C)C(=O)c1cc(-c2cnc(C(F)(F)F)cc2C#N)c(Cl)cc1OCCCN` [23-1, 2-(3-Amino-propoxy)-4-chloro-5-(4-cyano-6-trifluoromethyl-pyridin-3-yl)-N-(2-methoxy-6-methyl-phenyl)-N-methyl-benzamide], the Ki was at most 100 nM.

For `COC(=O)c1ccccc1N(C)C(=O)c1ccc(Cl)c(-c2ncc(Cl)cc2Cl)c1` [19-6], the Ki was at most 100 nM.

With `CN(C(=O)c1ccc(Cl)c(-c2cnc(C(F)(F)F)cc2C#N)c1)c1ccccc1OCC(C)(C)C(=O)O` [52-1, 3-(2-{[4-Chloro-3-(4-cyano-6-trifluoromethyl-pyridin-3-yl)-benzoyl]-methyl-amino}-phenoxy)-2,2-dimethyl-propionic acid], the Ki is at most 100 nM.

In the case of `COc1cc(F)ccc1N(C)C(=O)c1cc(-c2cnc(C(F)(F)F)cc2C#N)c(Cl)cc1OCCCC(=O)O` [34-4], the Ki was at most 100 nM.

The molecule `COc1cccc(C)c1N(C)C(=O)c1ccc(Cl)c(-c2cnc(C#N)cc2C)c1` [2-34] returned a Ki of at most 100 nM.

The record behind these values is US8481738B2, “Gonadotropin-releasing hormone receptor antagonists and methods relating thereto” (Neurocrine Biosciences, Inc., priority 2007, dated 2013).
